Format in all cases: biochemical
The target in one experiment is JAK2 (Homo sapiens (Human), UniProt O60674). As to the kind of experiment: JAK2 Inhibition Assay (Omnia kinase fluorescence peptide substrate assay). From the text:
(§1) The assays described in Examples A, B, C and D for the determination of Tyk2, JAK1, JAK2 and JAK3 kinase activity, respectively, utilized the Omnia® Kinase fluorescence peptide substrate-based technology (Invitrogen). The specific components of the assay mixture are described in Examples A, B, C and D. In these assays, Mg^2+ is chelated upon phosphorylation of the Omnia peptide by the kinase to form a bridge between the chelation-enhanced fluorophore Sox and the phosphate, resulting in an increase in fluorescence emission at 485 nm when excited at […]. The reactions were therefore read at excitation 360 nm and emission was measured at 485 nm every 50 seconds for 45 minutes using a PerkinElmer EnVision Multilabel Plate Reader.
(§2) The final buffer conditions for Tyk2, JAK1, JAK2, and JAK3 assays were as follows: 25 mM HEPES, pH 7.4, 10 mM MgCl2, 0.01% Triton X-100 and 1 mM DTT.
(§3) Two-μL aliquots of these were transferred to a fresh plate for a ten-fold intermediate dilution with assay buffer. Five-μL aliquots of the diluted compounds were then transferred to 20-μL of assay mixtures described in Examples A, B, C and D for a final concentration of DMSO of 2%. […] For each plate, percent of control (POC) values were calculated for each well according to the following equation:
(§4) where Xmax=Average Uninhibited Controls • Xmin=Average Background IC50's were estimated from the POC's using a standard 4-parameter logistic model:
(§5) where A=Minimum Y (Bottom Asymptote) • B=Maximum Y (Top Asymptote) • C=EC50 • D=Slope Factor • X=Compound Concentration (nM) • Y=POC
(§6) The IC50 is defined as the concentration of inhibitor at which the POC equals 50 for the fitted curve.
Compounds of Formula I were screened for their ability to inhibit JAK2 using the general enzyme inhibition assay method, in which the assay mixture contained 1 mM ATP, 10 μM Omnia® Y7 peptide (Catalog # IVGN KNZ3071C, Invitrogen Corporation, Carlsbad, Calif.) and 4 nM JAK2 in a total volume of 25 μL. JAK2 was purchased from Invitrogen Corporation, Carlsbad, Calif. (catalog # IVGN PV4288).

For a further experiment, the target named is Human Tyk2 kinase domain (Homo sapiens (Human), UniProt P29597). As to the kind of experiment: Tyk2 Inhibition Assay (Omnia kinase fluorescence peptide substrate assay).
From the text: as §1, §2, §3, §4, §5, §6
Compounds of Formula I were screened for their ability to inhibit Tyk2 using the general enzyme inhibition assay method, in which the assay mixture contained 1 mM ATP, 8 μM Omnia® Y12 peptide (Catalog # IVGN KPZ3121C; Invitrogen Corporation, Carlsbad, Calif.) and 1 nM Tyk2 in a total volume of 25 μL. Human Tyk2 kinase domain, comprising amino acids 886 to 1187 with 10 additional histidine residues (histidine tag) on the carboxy terminus, was expressed and purified from bacculovirus in-house at Array BioPharma Inc. (Boulder, Colo.). The histidine tag was cleaved after purification using standard conditions.

For another experiment, the target named is JAK3 (Homo sapiens (Human), UniProt P52333). As to the kind of experiment: JAK3 Inhibition Assay (Omnia kinase fluorescence peptide substrate assay). The settings on record: read-out: JAK3 Enzyme IC50 1 mM ATP, averaged IC50 ranges.
From the text: as §1, §2
Two-μL aliquots of these were transferred to a fresh plate for a ten-fold intermediate dilution with assay buffer. Five-μL aliquots of the diluted compounds were then transferred to 20-μL of assay mixtures described in Examples A, B, C and D for a final concentration of DMSO of 2%. […] For each plate, percent of control (POC) values were calculated for each well according to the following equation: […]

Another experiment addresses JAK1 (Homo sapiens (Human), UniProt P23458). As to the kind of experiment: JAK1 Inhibition Assay (Omnia kinase fluorescence peptide substrate assay).
From the text: as §1, §2, §3, §4, §5, §6
Compounds of Formula I were screened for their ability to inhibit JAK1 using the general enzyme inhibition assay method, in which the assay mixture contained 1 mM ATP, 8 μM Omnia® Y12 peptide (Catalog # IVGN KPZ3121C; Invitrogen Corporation, Carlsbad, Calif.) and 12.5 nM JAK1 in a total volume of 25 μL. JAK1 was purchased from Invitrogen Corporation, Carlsbad, Calif. (catalog # IVGN PV4775).

Setting [1] is: read-out: JAK2 Enzyme IC50 1 mM ATP, 1 mM ATP, averaged IC50 ranges.
Where [2] appears, read: read-out: TYK2 Enzyme IC50 1 mM ATP, 1 mM ATP, averaged IC50 ranges.
Setting [3] is: JAK1 Enzyme IC50 1 mM ATP, averaged IC50 ranges.

Read-outs that look alike come from different tables or passages of the source.

Human Tyk2 kinase domain, sequence (P29597 886-1187): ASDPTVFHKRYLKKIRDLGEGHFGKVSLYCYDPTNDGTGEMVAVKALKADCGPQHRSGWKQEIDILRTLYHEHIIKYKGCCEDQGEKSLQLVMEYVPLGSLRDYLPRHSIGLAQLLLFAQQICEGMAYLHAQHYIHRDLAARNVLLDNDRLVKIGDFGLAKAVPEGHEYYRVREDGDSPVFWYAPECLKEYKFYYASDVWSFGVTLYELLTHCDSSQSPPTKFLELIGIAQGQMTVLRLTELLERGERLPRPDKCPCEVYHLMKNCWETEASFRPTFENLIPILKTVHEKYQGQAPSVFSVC
JAK2, sequence (O60674 whole entry): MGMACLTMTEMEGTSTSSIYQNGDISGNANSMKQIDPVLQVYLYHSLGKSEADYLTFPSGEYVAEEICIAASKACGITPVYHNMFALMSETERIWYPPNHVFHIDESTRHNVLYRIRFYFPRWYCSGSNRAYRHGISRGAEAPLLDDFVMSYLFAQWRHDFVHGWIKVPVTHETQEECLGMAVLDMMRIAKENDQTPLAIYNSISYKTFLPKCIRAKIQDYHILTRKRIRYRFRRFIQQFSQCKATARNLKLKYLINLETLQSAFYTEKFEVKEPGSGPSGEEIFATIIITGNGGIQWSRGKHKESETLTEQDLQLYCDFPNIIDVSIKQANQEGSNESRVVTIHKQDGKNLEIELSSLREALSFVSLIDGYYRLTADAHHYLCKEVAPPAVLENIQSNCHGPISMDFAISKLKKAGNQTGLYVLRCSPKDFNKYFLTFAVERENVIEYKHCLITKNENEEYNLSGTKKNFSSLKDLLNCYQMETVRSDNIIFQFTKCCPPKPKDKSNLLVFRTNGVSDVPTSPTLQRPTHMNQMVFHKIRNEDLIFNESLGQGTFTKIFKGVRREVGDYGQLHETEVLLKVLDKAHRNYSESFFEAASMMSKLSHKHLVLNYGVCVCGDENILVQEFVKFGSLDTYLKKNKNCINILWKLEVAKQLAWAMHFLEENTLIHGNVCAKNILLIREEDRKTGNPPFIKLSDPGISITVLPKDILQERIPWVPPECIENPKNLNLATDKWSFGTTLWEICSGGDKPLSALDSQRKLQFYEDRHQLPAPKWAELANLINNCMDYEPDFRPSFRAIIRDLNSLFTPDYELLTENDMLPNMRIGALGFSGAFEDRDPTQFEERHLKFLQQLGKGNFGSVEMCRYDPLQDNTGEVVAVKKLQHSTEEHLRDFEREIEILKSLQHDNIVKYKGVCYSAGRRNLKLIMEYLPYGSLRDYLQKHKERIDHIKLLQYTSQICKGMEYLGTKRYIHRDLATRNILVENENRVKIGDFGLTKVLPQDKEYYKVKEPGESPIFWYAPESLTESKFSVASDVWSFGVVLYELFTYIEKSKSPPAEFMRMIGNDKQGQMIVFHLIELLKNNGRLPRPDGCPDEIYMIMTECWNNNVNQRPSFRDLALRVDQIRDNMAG
JAK1, sequence (P23458 whole entry): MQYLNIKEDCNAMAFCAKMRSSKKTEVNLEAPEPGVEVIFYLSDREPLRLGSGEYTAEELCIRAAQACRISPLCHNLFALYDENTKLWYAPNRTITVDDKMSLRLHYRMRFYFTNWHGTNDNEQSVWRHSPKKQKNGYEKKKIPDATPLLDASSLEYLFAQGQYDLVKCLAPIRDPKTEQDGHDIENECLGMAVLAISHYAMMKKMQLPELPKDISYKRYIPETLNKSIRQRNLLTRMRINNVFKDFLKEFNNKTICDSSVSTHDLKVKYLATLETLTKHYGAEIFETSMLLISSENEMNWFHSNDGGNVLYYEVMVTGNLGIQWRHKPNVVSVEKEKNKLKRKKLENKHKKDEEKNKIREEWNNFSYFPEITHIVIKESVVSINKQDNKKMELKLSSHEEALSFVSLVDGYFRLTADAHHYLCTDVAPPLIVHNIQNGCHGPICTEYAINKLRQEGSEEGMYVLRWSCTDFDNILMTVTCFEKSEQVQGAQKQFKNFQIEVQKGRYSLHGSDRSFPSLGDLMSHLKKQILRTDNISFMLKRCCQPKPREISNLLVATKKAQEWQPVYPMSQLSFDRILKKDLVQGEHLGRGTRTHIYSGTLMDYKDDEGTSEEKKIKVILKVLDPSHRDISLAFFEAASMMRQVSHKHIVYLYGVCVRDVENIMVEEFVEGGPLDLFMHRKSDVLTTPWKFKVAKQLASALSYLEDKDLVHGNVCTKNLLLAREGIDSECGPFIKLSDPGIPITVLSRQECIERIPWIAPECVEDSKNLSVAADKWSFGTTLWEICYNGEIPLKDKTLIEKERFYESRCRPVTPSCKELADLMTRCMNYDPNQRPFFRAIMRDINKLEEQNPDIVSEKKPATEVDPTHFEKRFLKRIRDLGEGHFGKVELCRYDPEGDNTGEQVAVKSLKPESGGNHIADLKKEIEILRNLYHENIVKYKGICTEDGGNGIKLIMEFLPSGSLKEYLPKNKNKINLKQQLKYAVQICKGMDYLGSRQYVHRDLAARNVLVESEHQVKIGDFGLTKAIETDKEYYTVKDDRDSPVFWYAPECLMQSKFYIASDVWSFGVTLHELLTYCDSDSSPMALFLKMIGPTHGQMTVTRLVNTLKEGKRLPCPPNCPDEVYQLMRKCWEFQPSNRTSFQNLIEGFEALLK
JAK3, sequence (P52333 whole entry): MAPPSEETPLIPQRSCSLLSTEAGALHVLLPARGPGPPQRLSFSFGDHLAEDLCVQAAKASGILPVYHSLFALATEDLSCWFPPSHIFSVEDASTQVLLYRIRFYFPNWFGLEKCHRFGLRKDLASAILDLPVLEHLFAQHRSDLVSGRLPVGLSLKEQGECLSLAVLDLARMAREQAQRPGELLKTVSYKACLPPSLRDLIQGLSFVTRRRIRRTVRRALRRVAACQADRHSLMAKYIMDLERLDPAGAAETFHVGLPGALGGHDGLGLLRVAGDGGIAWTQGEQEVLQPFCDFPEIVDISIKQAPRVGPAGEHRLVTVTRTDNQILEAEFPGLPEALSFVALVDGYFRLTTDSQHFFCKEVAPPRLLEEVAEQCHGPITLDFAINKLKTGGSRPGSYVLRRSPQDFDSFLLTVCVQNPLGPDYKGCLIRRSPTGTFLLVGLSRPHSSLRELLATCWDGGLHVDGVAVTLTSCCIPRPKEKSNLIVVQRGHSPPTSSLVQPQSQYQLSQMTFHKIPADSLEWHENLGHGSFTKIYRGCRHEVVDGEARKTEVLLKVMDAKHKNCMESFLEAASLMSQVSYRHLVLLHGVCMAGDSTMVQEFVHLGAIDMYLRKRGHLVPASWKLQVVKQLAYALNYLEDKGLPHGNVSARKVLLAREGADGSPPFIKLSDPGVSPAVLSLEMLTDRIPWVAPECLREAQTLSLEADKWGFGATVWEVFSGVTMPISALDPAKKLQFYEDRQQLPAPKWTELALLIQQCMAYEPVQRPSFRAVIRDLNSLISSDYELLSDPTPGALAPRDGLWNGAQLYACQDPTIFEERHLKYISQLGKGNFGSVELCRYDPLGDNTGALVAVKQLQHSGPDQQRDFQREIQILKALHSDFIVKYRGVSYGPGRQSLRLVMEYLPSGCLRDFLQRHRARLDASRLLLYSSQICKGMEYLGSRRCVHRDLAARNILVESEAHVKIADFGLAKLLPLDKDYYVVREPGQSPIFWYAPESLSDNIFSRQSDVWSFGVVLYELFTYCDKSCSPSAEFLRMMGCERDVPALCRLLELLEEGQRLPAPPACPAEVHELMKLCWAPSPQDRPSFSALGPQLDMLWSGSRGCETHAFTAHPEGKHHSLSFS

Take `CC[C@H](C1CC1)n1cc(-c2nc(-c3cnn(C[C@@H](O)CO)c3)cn3nccc23)cn1` (single isomer, unassigned) [Example 213]: the half-maximal inhibitory concentration (IC50) on JAK2 (setting [1]) is 10 to 100 nM.
Same read-out and setting: the figure for `CCC(CC)n1cc(-c2nc(-c3cnn(C4CS(=O)(=O)C4)c3)cn3nccc23)cn1` [Example 13, 3-(4-(4-(1-(pentan-3-yl)-1H-pyrazol-4-yl)pyrazolo[1,5-a]pyrazin-6-yl)-1H-pyrazol-1-yl)thietane 1,1-dioxide] is under 10 nM.
Same read-out and setting: the figure for `CCC(CC)n1cc(-c2nc(-c3cnn(C4CCN(C(C)=O)CC4)c3)cn3nccc23)cn1` [Example 31, 1-(4-(4-(4-(1-(pentan-3-yl)-1H-pyrazol-4-yl)pyrazolo[1,5-a]pyrazin-6-yl)-1H-pyrazol-1-yl)piperidin-1-yl)ethanone] is under 10 nM.
Consider `CCC(CC)n1cc(-c2nc(-c3cnn(C4CCN(S(C)(=O)=O)CC4)c3)cn3nccc23)cn1` [Example 32, 6-(1-(1-(methylsulfonyl)piperidin-4-yl)-1H-pyrazol-4-yl)-4-(1-(pentan-3-yL)-1H-pyrazol-4-yl)pyrazolo[1,5-a]pyrazine], for which the IC50 on Human Tyk2 kinase domain (setting [2]) and at JAK2 (setting [1]) was under 10 nM each time.
On to `CCC(CC)n1cc(-c2nc(-c3cnn(C4CCN(C(=O)COC)CC4)c3)cn3nccc23)cn1` [Example 33, 2-methoxy-1-(4-(4-(4-(1-(pentan-3-yl)-1H-pyrazol-4-yl)pyrazolo[1,5-a]pyrazin-6-yl)-1H-pyrazol-1-yl)piperidin-1-yl)ethanone], for which the IC50 at Human Tyk2 kinase domain (setting [2]) and at JAK2 (setting [1]) was under 10 nM each time.
Consider `CCC(CC)n1cc(-c2nc(-c3cnn(C4CCN(C(=O)NC)CC4)c3)cn3nccc23)cn1` [Example 34, N-methyl-4-(4-(4-(1-(pentan-3-yl)-1H-pyrazol-4-yl)pyrazolo[1,5-a]pyrazin-6-yl)-1H-pyrazol-1-yl)piperidine-1-carboxamide], for which the IC50 on JAK2 (setting [1]) was under 10 nM.
For the molecule `CCC(CC)n1cc(-c2nc(-c3cnn(C4CCN(C(=O)CN)CC4)c3)cn3nccc23)cn1` [Example 36, 2-amino-1-(4-(4-(4-(1-(pentan-3-yl)-1H-pyrazol-4-yl)pyrazolo[1,5-a]pyrazin-6-yl)-1H-pyrazol-1-yl)piperidin-1-yl)ethanone], the 50% inhibitory concentration (IC50) at Human Tyk2 kinase domain (setting [2]) and on JAK2 (setting [1]) was under 10 nM throughout.
With `CC[C@@H](C)n1cc(-c2nc(-c3cnn(C(CO)CO)c3)cn3nccc23)cn1` [Example 85, (R)-2-(4-(4-(1-(sec-butyl)-1H-pyrazol-4-yl)pyrazolo[1,5-a]pyrazin-6-yl)-1H-pyrazol-1-yl)propane-1,3-diol], on JAK2 (setting [1]), the IC50 was under 10 nM.
For the molecule `CCC[C@H](C)n1cc(-c2nc(-c3cnn(C[C@H](O)CO)c3)cn3nccc23)cn1` [Example 86, (S)-3-(4-(4-(1-((S)-pentan-2-yl)-1H-pyrazol-4-yl)pyrazolo[1,5-a]pyrazin-6-yl)-1H-pyrazol-1-yl)propane-1,2-diol], on Human Tyk2 kinase domain (setting [2]), the IC50 is under 10 nM.
As to `CC1(C)CCC[C@@H]1n1cc(-c2nc(-c3cnn(C[C@@H](O)CO)c3)cn3nccc23)cn1` [Example 95, (R)-3-(4-(4-(1-((S)-2,2-dimethylcyclopentyl)-1H-pyrazol-4-yl)pyrazolo[1,5-a]pyrazin-6-yl)-1H-pyrazol-1-yl)propane-1,2-diol], the IC50 at JAK2 (setting [1]) was 1000 to 10000 nM.
Turning to `CCC(CC)n1cc(-c2nc(-c3cnn([C@H]4CC[C@H](O)CC4)c3)cn3nccc23)cn1` [Example 118, trans-4-(4-(4-(1-(pentan-3-yl)-1H-pyrazol-4-yl)pyrazolo[1,5-a]pyrazin-6-yl)-1H-pyrazol-1-yl)cyclohexanol], at JAK3, the IC50 lay in the range of 1 to 10 µM.
With `CCC(CC)n1cc(-c2nc(-c3cnn([C@H]4CC[C@@H](O)CC4)c3)cn3nccc23)cn1` [Example 121, cis-4-(4-(4-(1-(pentan-3-yl)-1H-pyrazol-4-yl)pyrazolo[1,5-a]pyrazin-6-yl)-1H-pyrazol-1-yl)cyclohexanol], at JAK3, the IC50 fell in the range of 1 to 10 µM.
As to `CCC(CC)n1cc(-c2nc(-c3cnn([C@@H]4C[C@@H](O)[C@@H](O)C4)c3)cn3nccc23)cn1` [Example 132, (1R,2S,4s)-4-(4-(4-(1-(pentan-3-yl)-1H-pyrazol-4-yl)pyrazolo[1,5-a]pyrazin-6-yl)-1H-pyrazol-1-yl)cyclopentane-1,2-diol], the IC50 at JAK1 (read-out: JAK1 Enzyme IC50 1 mM ATP, averaged IC50 ranges) was 100 to 1000 nM; on JAK2 (setting [1]), 10 to 100 nM.
For the molecule `CCC(CC)n1cc(-c2nc(-c3cnn(C4CC(C(N)=O)C4)c3)cn3nccc23)cn1` (centres unmarked) [Example 168, (1s,3s)-3-(4-(4-(1-(pentan-3-yl)-1H-pyrazol-4-yl)pyrazolo[1,5-a]pyrazin-6-yl)-1H-pyrazol-1-yl)cyclobutanecarboxamide], the IC50 on JAK1 (setting [3]) was 1000 to 10000 nM.
Turning to `CCC(CC)n1cc(-c2nc(-c3cnn(C4CN(C(=O)C(C)(C)O)C4)c3)cn3nccc23)cn1` [Example 176, 2-hydroxy-2-methyl-1-(3-(4-(4-(1-(pentan-3-yl)-1H-pyrazol-4-yl)pyrazolo[1,5-a]pyrazin-6-yl)-1H-pyrazol-1-yl)azetidin-1-yl)propan-1-one], the IC50 at Human Tyk2 kinase domain (setting [2]) is under 10 nM.
The same measure, in the same setting: in the case of `CCC(CC)n1cc(-c2nc(-c3cnn(C4CN(C(=O)C5(O)CC5)C4)c3)cn3nccc23)cn1` [Example 177, (1-hydroxycyclopropyl)(3-(4-(4-(1-(pentan-3-yl)-1H-pyrazol-4-yl)pyrazolo[1,5-a]pyrazin-6-yl)-1H-pyrazol-1-yl)azetidin-1-yl)methanone] it was under 10 nM.
Turning to `CCC(CC)n1cc(-c2nc(-c3cnn([C@@H]4CCC[C@@H]4O)c3)cn3nccc23)cn1` [Example 189, (1S,2R)-2-(4-(4-(1-(pentan-3-yl)-1H-pyrazol-4-yl)pyrazolo[1,5-a]pyrazin-6-yl)-1H-pyrazol-1-yl)cyclopentanol], the IC50 lay in the range of 10 to 100 nM against Human Tyk2 kinase domain, 1000 to 10000 nM at JAK1 (setting [3]) and 10 to 100 nM on JAK2.

Usually IC50 stands for the midpoint of a concentration-inhibition curve.

(Values after patent publication US10730880B2, “4,6-substituted-pyrazolo[1,5-a]pyrazines as Janus kinase inhibitors” (Array BioPharma Inc., priority 2014, dated 2020).)
